Results: US11542259B2, “Compounds for the treatment of kinase-dependent disorders” (Exelixis, Inc., priority 2018, dated 2023)

Assays:
Met = Met (Homo sapiens (Human), UniProt P08581); assay: Met autophosphorylation ELISA in PC-3 cells; format: cell-based; details: cellular, HGF stimulated, read-out: c-Met IC50
Outline: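 Phospho-Met (panTyr) sandwich ELISA on lysates of PC-3 cells given 100 ng/mL HGF for 10 min after 1 h compound exposure (8-point curve, 0.3% DMSO) following 3 h serum starvation. Normalised to HGF-stimulated DMSO and reference-inhibitor wells; 4-parameter logistic IC50.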

Mer = Mer (Homo sapiens (Human), UniProt Q12866); assay: Mer autophosphorylation ELISA in transient transfected 293A cells; format: cell-based; details: cellular, MERTK transfected 293A cells
Outline: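 293A cells transiently transfected with human MERTK DNA, then treated 1 h with 8-point compound dilutions in serum-free medium (0.3% DMSO). Phospho-Mer in lysates quantified by sandwich ELISA against phospho-Mer standard; normalised to DMSO (100%) and reference inhibitor (0%), IC50 from 4-parameter logistic fit.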

[1] = molecular target: Human Met (residues R974-S1390 with A1209G and V1290L) (Homo sapiens, UniProt P08581); assay: Human Met kinase assay (33P radiometric, KinaseProfiler); format: biochemical; details: 10 μM ATP, read-out: c-Met IC50
[2] = molecular target: Human Axl (residues H473-A894 with Q764R) (Homo sapiens (Human), UniProt P30530, Q764R); assay: Human AXL kinase assay (33P radiometric, KinaseProfiler); format: biochemical; details: 10 μM ATP
Human Axl (residues H473-A894 with Q764R), sequence (P30530 473-894 Q764R): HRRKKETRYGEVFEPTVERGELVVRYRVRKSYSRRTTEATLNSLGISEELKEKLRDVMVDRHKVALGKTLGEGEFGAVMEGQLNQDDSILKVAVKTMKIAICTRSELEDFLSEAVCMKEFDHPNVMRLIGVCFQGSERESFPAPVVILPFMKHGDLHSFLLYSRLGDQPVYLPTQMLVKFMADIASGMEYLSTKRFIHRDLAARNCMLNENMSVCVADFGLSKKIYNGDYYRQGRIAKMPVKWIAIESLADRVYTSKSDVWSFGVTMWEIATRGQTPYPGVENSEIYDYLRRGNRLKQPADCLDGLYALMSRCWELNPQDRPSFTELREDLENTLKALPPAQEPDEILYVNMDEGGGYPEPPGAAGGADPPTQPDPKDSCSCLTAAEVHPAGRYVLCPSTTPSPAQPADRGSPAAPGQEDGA

Mer, sequence (Q12866 21-999): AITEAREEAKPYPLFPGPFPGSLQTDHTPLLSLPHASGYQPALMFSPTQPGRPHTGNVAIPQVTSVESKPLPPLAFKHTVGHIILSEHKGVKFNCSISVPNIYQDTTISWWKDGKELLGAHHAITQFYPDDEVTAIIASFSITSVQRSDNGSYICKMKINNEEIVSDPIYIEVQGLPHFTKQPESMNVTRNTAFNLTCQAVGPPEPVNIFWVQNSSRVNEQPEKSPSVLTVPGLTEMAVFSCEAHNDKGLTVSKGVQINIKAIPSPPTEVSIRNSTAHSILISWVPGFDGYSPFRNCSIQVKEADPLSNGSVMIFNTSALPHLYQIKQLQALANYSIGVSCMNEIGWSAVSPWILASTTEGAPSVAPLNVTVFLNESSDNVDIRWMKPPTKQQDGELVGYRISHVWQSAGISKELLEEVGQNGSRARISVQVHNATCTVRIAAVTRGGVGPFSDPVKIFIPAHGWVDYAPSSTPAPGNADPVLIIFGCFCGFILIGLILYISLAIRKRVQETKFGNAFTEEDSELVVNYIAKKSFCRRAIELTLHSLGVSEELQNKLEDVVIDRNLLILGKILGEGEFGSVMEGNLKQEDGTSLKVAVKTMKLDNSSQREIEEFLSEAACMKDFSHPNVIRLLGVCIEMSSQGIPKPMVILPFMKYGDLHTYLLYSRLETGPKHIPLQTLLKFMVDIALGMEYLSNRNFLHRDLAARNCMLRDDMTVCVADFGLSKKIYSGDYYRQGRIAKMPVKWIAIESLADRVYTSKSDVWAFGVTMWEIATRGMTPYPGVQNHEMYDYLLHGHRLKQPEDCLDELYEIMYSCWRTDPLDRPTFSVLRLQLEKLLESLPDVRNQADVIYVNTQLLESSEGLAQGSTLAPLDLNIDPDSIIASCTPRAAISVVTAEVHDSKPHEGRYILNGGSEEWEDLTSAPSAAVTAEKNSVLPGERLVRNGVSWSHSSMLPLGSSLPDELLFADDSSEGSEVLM
Met, sequence (P08581 25-1390): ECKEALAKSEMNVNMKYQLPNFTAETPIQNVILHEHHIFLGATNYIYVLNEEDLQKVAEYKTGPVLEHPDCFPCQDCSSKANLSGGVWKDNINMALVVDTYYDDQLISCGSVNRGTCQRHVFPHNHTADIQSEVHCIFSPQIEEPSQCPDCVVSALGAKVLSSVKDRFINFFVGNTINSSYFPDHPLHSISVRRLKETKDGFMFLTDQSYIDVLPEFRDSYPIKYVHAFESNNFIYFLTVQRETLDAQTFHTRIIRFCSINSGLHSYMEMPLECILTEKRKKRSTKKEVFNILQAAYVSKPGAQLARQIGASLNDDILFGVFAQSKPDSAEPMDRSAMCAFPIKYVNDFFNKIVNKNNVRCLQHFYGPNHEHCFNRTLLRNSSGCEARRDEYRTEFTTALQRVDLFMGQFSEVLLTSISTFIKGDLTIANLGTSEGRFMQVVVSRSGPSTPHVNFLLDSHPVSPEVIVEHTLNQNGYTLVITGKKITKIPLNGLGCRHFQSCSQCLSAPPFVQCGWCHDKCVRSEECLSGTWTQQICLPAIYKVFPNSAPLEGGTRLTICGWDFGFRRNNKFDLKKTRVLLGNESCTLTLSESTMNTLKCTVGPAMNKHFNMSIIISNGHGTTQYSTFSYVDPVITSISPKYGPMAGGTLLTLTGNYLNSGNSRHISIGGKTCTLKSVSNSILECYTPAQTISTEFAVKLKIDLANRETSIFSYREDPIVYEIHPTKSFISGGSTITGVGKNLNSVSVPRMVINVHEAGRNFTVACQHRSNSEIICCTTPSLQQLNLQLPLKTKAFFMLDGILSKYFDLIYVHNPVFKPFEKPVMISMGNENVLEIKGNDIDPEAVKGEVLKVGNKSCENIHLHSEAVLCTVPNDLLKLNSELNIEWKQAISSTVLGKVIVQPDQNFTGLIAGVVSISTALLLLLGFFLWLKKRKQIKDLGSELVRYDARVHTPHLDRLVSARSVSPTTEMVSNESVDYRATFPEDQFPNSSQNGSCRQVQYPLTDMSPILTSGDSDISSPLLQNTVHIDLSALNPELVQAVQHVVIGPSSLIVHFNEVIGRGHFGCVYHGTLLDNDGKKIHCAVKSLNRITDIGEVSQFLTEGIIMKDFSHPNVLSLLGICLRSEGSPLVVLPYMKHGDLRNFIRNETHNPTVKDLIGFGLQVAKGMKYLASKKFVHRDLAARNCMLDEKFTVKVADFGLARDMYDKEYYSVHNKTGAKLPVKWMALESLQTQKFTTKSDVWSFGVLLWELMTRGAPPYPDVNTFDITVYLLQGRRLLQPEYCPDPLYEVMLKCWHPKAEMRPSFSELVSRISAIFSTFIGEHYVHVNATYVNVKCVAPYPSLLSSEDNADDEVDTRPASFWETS

| SMILES | IC50 (Met) | IC50 (Mer) | IC50 [1] | IC50 [2] |
| --- | --- | --- | --- | --- |
| CCNC(=O)c1cc2c(Oc3ccc(NC(=O)C4(C(=O)Nc5ccc(F)cc5)CC4)cc3)ccnc2cc1OC [Compound 9, 1-N-[4-[6-(ethylcarbamoyl)-7-methoxyquinolin-4-yl]oxyphenyl]-1-N′-(4-fluorophenyl)cyclopropane-1,1-dicarboxamide] | 0.01 to 0.1 µM | ≤ 0.01 µM | – | – |
| COc1cc2nccc(Oc3ccc(NC(=O)C4(C(=O)Nc5ccc(F)cc5)CC4)cc3)c2cc1-c1ccn[nH]1 [Compound 185, 1-N′-(4-fluorophenyl)-1-N-[4-[7-methoxy-6-(1H-pyrazol-5-yl)quinolin-4-yl]oxyphenyl]cyclopropane-1,1-dicarboxamide] | 0.01 to 0.1 µM | ≤ 0.01 µM | ≤ 0.01 µM | 0.01 to 0.1 µM |
| Cc1cc2c(Oc3ccc(NC(=O)C4(C(=O)Nc5ccc(F)cc5)CC4)cc3)ccnc2cc1C(N)=O [Compound 142, 1-N-[4-(7-carbamoyl-6-methylquinolin-4-yl)oxyphenyl]-1-N′-(4-fluorophenyl)cyclopropane-1,1-dicarboxamide] | 0.01 to 0.1 µM | 0.01 to 0.1 µM | ≤ 0.01 µM | ≤ 0.01 µM |
| COc1cc2nccc(Oc3ccc(NC(=O)C4(C(=O)Nc5ccc(F)cc5)CC4)cc3)c2cc1-c1ncc[nH]1 [Compound 191, 1-N′-(4-Fluorophenyl)-1-N-[4-[6-(1H-imidazol-2-yl)-7-methoxyquinolin-4-yl]oxyphenyl]cyclopropane-1,1-dicarboxamide] | 0.01 to 0.1 µM | ≤ 0.01 µM | – | – |
| COc1cc2nccc(Oc3ccc(NC(=O)C4(C(=O)Nc5ccc(F)cc5)CC4)cc3)c2cc1-c1c(C)noc1C [Compound 184, 1-N-[4-[6-(3,5-dimethyl-1,2-oxazol-4-yl)-7-methoxyquinolin-4-yl]oxyphenyl]-1-N′-(4-fluorophenyl)cyclopropane-1,1-dicarboxamide] | 0.01 to 0.1 µM | – | 0.01 to 0.1 µM | 0.01 to 0.1 µM |
| COc1cc2nccc(Oc3ccc(NC(=O)C4(C(=O)Nc5ccc(F)cc5)CC4)cc3)c2cc1S(C)(=O)=O [Compound 210, 1-N′-(4-Fluorophenyl)-1-N-[4-(7-methoxy-6-methylsulfonylquinolin-4-yl)oxyphenyl]cyclopropane-1,1-dicarboxamide] | 0.01 to 0.1 µM | – | ≤ 0.01 µM | ≤ 0.01 µM |
| COc1cc2nccc(Oc3ccc(NC(=O)C4(C(=O)Nc5ccc(F)cc5)CC4)cc3)c2cc1-c1cccnc1 [Compound 201, 1-N′-(4-Fluorophenyl)-1-N-[4-(7-methoxy-6-pyridin-3-ylquinolin-4-yl)oxyphenyl]cyclopropane-1,1-dicarboxamide] | 0.01 to 0.1 µM | – | ≤ 0.01 µM | ≤ 0.01 µM |
| COc1cc2nccc(Oc3ccc(NC(=O)C4(C(=O)Nc5ccc(F)cc5)CC4)cc3)c2cc1-c1ccc(C)o1 [Compound 180, 1-N′-(4-fluorophenyl)-1-N-[4-[7-methoxy-6-(5-methylfuran-2-yl)quinolin-4-yl]oxyphenyl]cyclopropane-1,1-dicarboxamide] | 0.01 to 0.1 µM | – | 0.01 to 0.1 µM | 0.01 to 0.1 µM |
| COc1cc2nccc(Oc3ccc(NC(=O)C4(C(=O)Nc5ccc(F)cc5)CC4)cc3Cl)c2cc1C(=O)O [Compound 130, 4-[2-chloro-4-[[1-[(4-fluorophenyl)carbamoyl]cyclopropanecarbonyl]amino]phenoxy]-7-methoxyquinoline-6-carboxylic acid] | > 0.3 µM | – | 0.01 to 0.1 µM | 0.01 to 0.1 µM |
| COc1cc2nccc(Oc3ccc(NC(=O)C4(C(=O)Nc5ccc(F)cc5)CC4)cc3)c2cc1C(=O)NC1CN(C)C1 [Compound 14, 1-N′-(4-fluorophenyl)-1-N-[4-[7-methoxy-6-[(1-methylazetidin-3-yl)carbamoyl]quinolin-4-yl]oxyphenyl]cyclopropane-1,1-dicarboxamide] | ≤ 0.01 µM | – | ≤ 0.01 µM | 0.01 to 0.1 µM |
| COc1cc2nccc(Oc3ccc(NC(=O)C4(C(=O)Nc5ccc(F)cc5)CC4)cc3)c2cc1N1CCC1 [Compound 198, 1-N-[4-[6-(azetidin-1-yl)-7-methoxyquinolin-4-yl]oxyphenyl]-1-N′-(4-fluorophenyl)cyclopropane-1,1-dicarboxamide] | 0.01 to 0.1 µM | – | 0.01 to 0.1 µM | 0.01 to 0.1 µM |
| COc1cc2nccc(Oc3ccc(NC(=O)C4(C(=O)Nc5ccc(F)cc5)CC4)cc3)c2cc1C(=O)N1CCC1 [Compound 15, 1-N-[4-[6-(azetidine-1-carbonyl)-7-methoxyquinolin-4-yl]oxyphenyl]-1-N′-(4-fluorophenyl)cyclopropane-1,1-dicarboxamide] | 0.1 to 0.3 µM | – | 0.01 to 0.1 µM | 0.01 to 0.1 µM |
| COc1cc2nccc(Oc3ccc(NC(=O)C4(C(=O)Nc5ccc(F)cc5)CC4)cc3F)c2cc1C(=O)O [Compound 131, 4-[2-fluoro-4-[[1-[(4-fluorophenyl)carbamoyl]cyclopropanecarbonyl]amino]phenoxy]-7-methoxyquinoline-6-carboxylic acid] | > 0.3 µM | – | ≤ 0.01 µM | 0.01 to 0.1 µM |
| COc1cc2nccc(Oc3ccc(NC(=O)C4(C(=O)Nc5ccc(F)cc5)CC4)cc3)c2cc1-c1ncco1 [Compound 45, 1-N′-(4-fluorophenyl)-1-N-[4-[7-methoxy-6-(1,3-oxazol-2-yl)quinolin-4-yl]oxyphenyl]cyclopropane-1,1-dicarboxamide] | ≤ 0.01 µM | ≤ 0.01 µM | ≤ 0.01 µM | – |
| COC(=O)c1cc2nccc(Oc3ccc(NC(=O)C4(C(=O)Nc5ccc(F)cc5)CC4)cc3)c2cc1OC [Compound 150, methyl 4-[4-[[1-[(4-fluorophenyl)carbamoyl]cyclopropanecarbonyl]amino]phenoxy]-6-methoxyquinoline-7-carboxylate] | 0.01 to 0.1 µM | – | ≤ 0.01 µM | 0.01 to 0.1 µM |
| COC(=O)c1cc2nccc(Oc3ccc(NC(=O)C4(C(=O)Nc5ccc(F)cc5)CC4)cc3)c2cc1C [Compound 140, methyl 4-[4-[[1-[(4-fluorophenyl)carbamoyl]cyclopropanecarbonyl]amino]phenoxy]-6-methylquinoline-7-carboxylate] | 0.01 to 0.1 µM | – | 0.01 to 0.1 µM | 0.01 to 0.1 µM |
| COC(=O)c1cc2c(Oc3ccc(NC(=O)C4(C(=O)Nc5ccc(F)cc5)CC4)cc3F)ccnc2cc1OC [Compound 129, methyl 4-[2-fluoro-4-[[1-[(4-fluorophenyl)carbamoyl]cyclopropanecarbonyl]amino]phenoxy]-7-methoxyquinoline-6-carboxylate] | 0.01 to 0.1 µM | – | ≤ 0.01 µM | ≤ 0.01 µM |
| COc1cc2nccc(Oc3ccc(NC(=O)C4(C(=O)Nc5ccc(F)cc5)CC4)cc3)c2cc1C#N [Compound 37, 1-N-[4-(6-cyano-7-methoxyquinolin-4-yl)oxyphenyl]-1-N′-(4-fluorophenyl)cyclopropane-1,1-dicarboxamide] | 0.01 to 0.1 µM | – | 0.01 to 0.1 µM | 0.01 to 0.1 µM |
| CN1CC(NC(=O)c2ccc3nccc(Oc4ccc(NC(=O)C5(C(=O)Nc6ccc(F)cc6)CC5)cc4)c3c2)C1 [Compound 60, 1-N′-(4-fluorophenyl)-1-N-[4-[6-[(1-methylazetidin-3-yl)carbamoyl]quinolin-4-yl]oxyphenyl]cyclopropane-1,1-dicarboxamide] | 0.1 to 0.3 µM | – | 0.01 to 0.1 µM | 0.01 to 0.1 µM |
| CNC(=O)c1ccc2nccc(Oc3ccc(NC(=O)C4(C(=O)Nc5ccc(F)cc5)CC4)cc3)c2c1 [Compound 59, 1-N′-(4-fluorophenyl)-1-N-[4-[6-(methylcarbamoyl)quinolin-4-yl]oxyphenyl]cyclopropane-1,1-dicarboxamide] | 0.1 to 0.3 µM | – | 0.01 to 0.1 µM | 0.01 to 0.1 µM |
| CONC(=O)c1cc2c(Oc3ccc(NC(=O)C4(C(=O)Nc5ccc(F)cc5)CC4)cc3)ccnc2cc1OC [Compound 17, 1-N′-(4-fluorophenyl)-1-N-[4-[7-methoxy-6-(methoxycarbamoyl)quinolin-4-yl]oxyphenyl]cyclopropane-1,1-dicarboxamide] | 0.01 to 0.1 µM | 0.01 to 0.1 µM | – | – |
| COc1cc2nccc(Oc3ccc(NC(=O)C4(C(=O)Nc5ccc(F)cc5)CC4)cc3)c2cc1C(N)=O [Compound 7, 1-N-[4-(6-carbamoyl-7-methoxyquinolin-4-yl)oxyphenyl]-1-N′-(4-fluorophenyl)cyclopropane-1,1-dicarboxamide] | ≤ 0.01 µM | ≤ 0.01 µM | ≤ 0.01 µM | – |
| CNC(=O)c1cc2c(Oc3ccc(NC(=O)C4(C(=O)Nc5ccc(F)cc5)CC4)cc3)ccnc2cc1OC [Compound 8, 1-N′-(4-fluorophenyl)-1-N-[4-[7-methoxy-6-(methylcarbamoyl)quinolin-4-yl]oxyphenyl]cyclopropane-1,1-dicarboxamide] | 0.01 to 0.1 µM | ≤ 0.01 µM | ≤ 0.01 µM | – |
| COc1cc2c(Oc3ccc(NC(=O)C4(C(=O)Nc5ccc(F)cc5)CC4)cc3)ccnc2cc1C(N)=O [Compound 152, 1-N-[4-(7-carbamoyl-6-methoxyquinolin-4-yl)oxyphenyl]-1-N′-(4-fluorophenyl)cyclopropane-1,1-dicarboxamide] | 0.1 to 0.3 µM | – | ≤ 0.01 µM | 0.01 to 0.1 µM |
| COC(=O)c1ccc2c(Oc3ccc(NC(=O)C4(C(=O)Nc5ccc(F)cc5)CC4)cc3)ccnc2c1 [Compound 162, methyl 4-[4-[[1-[(4-fluorophenyl)carbamoyl]cyclopropanecarbonyl]amino]phenoxy]quinoline-7-carboxylate] | 0.1 to 0.3 µM | – | 0.01 to 0.1 µM | 0.01 to 0.1 µM |
